The test system of this assay is honeybee colonies (Apidea nucs). The assay is described as follows: Brood production in Apidea nucs fed isofucosterol diets (Example 3). It is filed as in vivo, honeybees. The settings on record: as the concentration of isofucosterol in the diet increased; N>3 colonies/treatment. As for the experimental part:
Honeybees: Fully functional insulated styrofoam Apidea nucs comprised 5 mini frames populated with adult workers and 1 mated laying queen bee were populated with 300-400 ml of young adult workers (˜N<1.000 bees of mixed ages).
Each treatment was tested with 3-6 colonies; each colony was fed with a 60-100 g patty (solid diet) on the top feeder fitted with a mesh floor. Diet was fed on the first day and again on day 6; the quantity consumed was measured on day 6 and day 15. If no larvae or eggs/queen are observed by day 6 then the experiment is terminated. The number of capped brood cells was counted on day 15. The number of bee seams was estimated during each inspection. Sugar syrup (34%) and water was provided in feeders inside the tent to prevent carbohydrate starvation and to stimulate foraging activity.
In Example 3, bees were fed with a diet containing 10-18% protein, 6% fat, 1% vitamins/minerals and >75% carbohydrates.
As the concentration of isofucosterol increased, the amount of brood produced in each colony increased (N>3 colonies/treatment). The pupae, and the number of new adults was counted over the entire 10-week period.

Each structure is given as a SMILES string.

As for `C/C=C(/CC[C@@H](C)[C@H]1CC[C@H]2[C@@H]3CC=C4C[C@@H](O)CC[C@]4(C)[C@H]3CC[C@]12C)C(C)C` [isofucosterol, Isofucosterol], the “amount of brood produced in each colony” value is listed as “increased”.

These data come from patent publication US12635715B2, “Isofucosterol and combinations of isofucosterol and a multiplicity of sterols as a nutrient for animals” (APIX BIOSCIENCES, priority 2022, dated 2026).
